Test results as given in PubChem BioAssay (NCI).
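1) Cells in 96-well plates. 2) Compound, 48 h, 5 concentrations. 3) Linear interpolation between surrounding doses. 4) Unreached endpoint = highest concentration. GI50 is the concentration that inhibits growth by half. At the TGI there is no net growth.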

Tests used:
Assay in all cases: inhibition of tumour cell growth, NCI panel, 48 h
[1] = system: HS 578T breast
[2] = system: T-47D breast
[3] = system: LOX IMVI melanoma
[4] = system: PC-3 prostate
[5] = system: NCI/ADR-RES ovarian
[6] = system: MCF7 breast
[7] = system: BT-549 breast
[8] = system: DLD-1 colon
[9] = system: M19-MEL melanoma
[10] = system: LXFL 529 NSCLC
[11] = system: XF 498 CNS
[12] = system: DMS 273 small cell lung
[13] = system: RXF-631 renal

| SMILES | TGI [1] | TGI [2] | TGI [3] | TGI [4] | TGI [5] | TGI [6] | TGI [7] | TGI [8] | TGI [9] | TGI [10] | TGI [11] | TGI [12] | further results |
| --- | --- | --- | --- | --- | --- | --- | --- | --- | --- | --- | --- | --- | --- |
| COc1cc(/C=C2\C(=O)Nc3ccc(O)cc32)cc(OC)c1OC | > 100 µM | > 100 µM | 16.6 µM | 19.1 µM | 59 µM | > 100 µM | 29.4 µM |  |  |  |  |  | GI50 [1]: 13.5 µM; GI50 [2]: 7.55 µM; GI50 [3]: 4.53 µM; GI50 [4]: 2.4 µM; GI50 [5]: 17.8 µM; GI50 [6]: 8.59 µM; GI50 [7]: 11 µM |
| CCOC(=O)/C(C#N)=c1/s/c(=C(\O)N/N=C/c2ccc(OC)cc2)c(=N)n1-c1ccccc1 |  |  |  |  |  |  |  | > 100 µM | > 100 µM | > 100 µM |  |  |  |
| CS(=O)(=O)Sc1ccc(Cl)cc1 |  |  | 11.5 µM |  |  |  |  | 27.2 µM | 21.2 µM | 23.3 µM | 22.7 µM | 17.4 µM | TGI [13]: 20 µM |
| O[C@@H]1CCCCN1Cc1cc2cc3c(cc2c2cc(OCc4ccccc4)ccc12)OCO3 |  |  |  |  | 3.47 µM | 2.73 µM | 3.31 µM |  |  |  |  |  | GI50 [5]: 1.5 µM; GI50 [6]: 1.33 µM; GI50 [7]: 1.73 µM |
| CCCCCCCCCCCCOC(=N)N1CCOCC1 |  |  | 34.4 µM |  |  |  |  | 12.7 µM | 17.7 µM | 15.1 µM | 29.7 µM | 25.1 µM | TGI [13]: 22.6 µM |
| Nc1ccc(Oc2ccc(C3(c4ccc(Oc5ccc(N)c(O)c5)cc4)C4CC5CC(C4)CC3C5)cc2)cc1O | 5.32 µM | > 77.2 µM |  | 3.18 µM | 5.91 µM |  | 5.27 µM |  |  |  |  |  |  |
| O=c1cc(O)c1=O | > 100 µM | > 100 µM | > 100 µM | > 100 µM |  | > 100 µM | > 100 µM |  |  |  |  |  |  |
| CC(C)OP(=O)(OC(C)C)C(=Nc1ccc(N=C(NNc2ccc([N+](=O)[O-])cc2)P(=O)(OC(C)C)OC(C)C)cc1)NNc1ccc([N+](=O)[O-])cc1 |  |  | > 100 µM |  |  |  |  | > 100 µM | > 100 µM | > 100 µM | > 100 µM | > 100 µM |  |
